The supplement of paper PMC10307832

Legend:
Experiment in all cases: relative viability (nuclei count vs DMSO), 5 days (fraction); higher = more cells survive
Etoposide + Tozasertib = compound: COc1cc([C@@H]2c3cc4c(cc3[C@@H](O[C@@H]3O[C@@H]5CO[C@@H](C)O[C@H]5[C@H](O)[C@H]3O)[C@H]3COC(=O)[C@H]23)OCO4)cc(OC)c1O [Etoposide] + Cc1cc(Nc2cc(N3CCN(C)CC3)nc(Sc3ccc(NC(=O)C4CC4)cc3)n2)n[nH]1 [Tozasertib] (partner 0.1 µM)
Outline: (§1)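 After 5 days of treatment, lung cancer cells in 1536-well plates were fixed and stained in a single step (final 0.05% Triton X-100, 1% formaldehyde, 1 ug/ml Hoechst) and their nuclei counted on 4× images. Treatment had been applied by pin tool the day after seeding as one drug alone or as a fixed anchor-drug dose with five library-drug doses (not always all listed) in √10 steps. Relative viability is the nuclei count of treated wells divided by that of vehicle wells, and values are medians of duplicate plates.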

Bleomycin + Olaparib = compound: CC1=C(N=C(N=C1N)[C@H](CC(=O)N)NC[C@@H](C(=O)N)N)C(=O)N[C@@H]([C@H](C2=CN=CN2)OC3C(C(C(C(O3)CO)O)O)OC4C(C(C(C(O4)CO)O)OC(=O)N)O)C(=O)N[C@H](C)[C@H]([C@H](C)C(=O)N[C@@H]([C@@H](C)O)C(=O)NCCC5=NC(=CS5)C6=NC(=CS6)C(=O)NCCC[S+](C)C)O [Bleomycin] + O=C(c1cc(Cc2n[nH]c(=O)c3ccccc23)ccc1F)N1CCN(C(=O)C2CC2)CC1 [Olaparib] (partner 8 µM); settings: main component drawn
Outline: as §1

Etoposide + Decitabine = compound: COc1cc([C@@H]2c3cc4c(cc3[C@@H](O[C@@H]3O[C@@H]5CO[C@@H](C)O[C@H]5[C@H](O)[C@H]3O)[C@H]3COC(=O)[C@H]23)OCO4)cc(OC)c1O [Etoposide] + Nc1ncn([C@H]2C[C@H](O)[C@@H](CO)O2)c(=O)n1 [Decitabine] (partner 2 µM)
Outline: as §1

Bleomycin + Lapatinib = compound: CC1=C(N=C(N=C1N)[C@H](CC(=O)N)NC[C@@H](C(=O)N)N)C(=O)N[C@@H]([C@H](C2=CN=CN2)OC3C(C(C(C(O3)CO)O)O)OC4C(C(C(C(O4)CO)O)OC(=O)N)O)C(=O)N[C@H](C)[C@H]([C@H](C)C(=O)N[C@@H]([C@@H](C)O)C(=O)NCCC5=NC(=CS5)C6=NC(=CS6)C(=O)NCCC[S+](C)C)O [Bleomycin] + CS(=O)(=O)CCNCc1ccc(-c2ccc3ncnc(Nc4ccc(OCc5cccc(F)c5)c(Cl)c4)c3c2)o1 [Lapatinib] (partner 2 µM); settings: main component drawn
Outline: as §1

Cell Line	relative viability (Etoposide + Tozasertib; first compound 0.01 µM)	relative viability (Etoposide + Tozasertib; first compound 0.03162 µM)	relative viability (Etoposide + Tozasertib; first compound 0.1 µM)	relative viability (Etoposide + Tozasertib; first compound 0.3162 µM)	relative viability (Etoposide + Tozasertib; first compound 1 µM)	relative viability (Bleomycin + Olaparib; first compound 0.01 µM)	relative viability (Bleomycin + Olaparib; first compound 0.03162 µM)	relative viability (Bleomycin + Olaparib; first compound 0.1 µM)	relative viability (Bleomycin + Olaparib; first compound 0.3162 µM)	relative viability (Bleomycin + Olaparib; first compound 1 µM)	relative viability (Etoposide + Decitabine; first compound 0.01 µM)	relative viability (Etoposide + Decitabine; first compound 0.03162 µM)	relative viability (Etoposide + Decitabine; first compound 0.1 µM)	relative viability (Etoposide + Decitabine; first compound 0.3162 µM)	relative viability (Etoposide + Decitabine; first compound 1 µM)	relative viability (Bleomycin + Lapatinib; first compound 0.01 µM)	relative viability (Bleomycin + Lapatinib; first compound 0.03162 µM)	relative viability (Bleomycin + Lapatinib; first compound 0.1 µM)	relative viability (Bleomycin + Lapatinib; first compound 0.3162 µM)	relative viability (Bleomycin + Lapatinib; first compound 1 µM)
NCI-H2009	0.767	0.745	0.782	0.557	0.431	0.586	0.709	0.62	0.453	0.268	0.396	0.425	0.316	0.354	0.234	0.808	0.892	0.92	0.379	0.365
NCI-H2023	0.308	0.337	0.429	0.291	0.109	0.273	0.357	0.238	0.0886	0.09	0.246	0.247	0.204	0.146	0.109	0.521	0.664	0.506	0.19	0.101
NCI-H2085	0.783	0.772	0.762	0.727	0.478	0.665	0.716	0.47	0.376	0.383	0.609	0.573	0.484	0.373	0.374	0.689	0.689	0.6	0.437	0.449
NCI-H2087	0.214	0.248	0.233	0.205	0.166	0.366	0.46	0.442	0.182	0.145	0.287	0.3	0.276	0.214	0.102	0.642	0.97	0.798	0.301	0.235
NCI-H2126	0.739	0.854	0.632	0.63	0.254	0.863	0.933	0.932	0.739	0.67	0.584	0.636	0.486	0.476	0.323	0.768	0.76	0.735	0.638	0.548
NCI-H2170	0.634	0.778	0.522	0.593	0.526	0.508	0.523	0.397	0.361	0.3	0.463	0.449		0.386	0.342	0.303	0.262	0.259	0.231	0.21
NCI-H2347	0.518	0.554	0.419	0.433	0.291	0.581	0.573	0.466	0.45	0.413	0.6	0.628	0.573	0.443	0.411	0.836	0.974	0.966	0.612	0.493
NCI-H2405	0.745	0.77	0.86	0.576	0.294	0.668	0.757	0.669	0.395	0.277	0.732	0.808	0.563	0.519	0.328	0.836	1.01	0.889	0.357	0.262
